US8455475B2 (Gruenenthal GmbH, priority 2009, dated 2013)

These compounds were tested against T1, rat B1R (bradykinin receptor 1) (Rattus norvegicus, UniProt P97583) (assay: FLIPR Ca2+ assay (Fluo-4) on CHO K1 cells stably transfected with the B1R gene of the rat (rB1R cells): % inhibition at 10 μM / IC50, agonist Des-Arg9-bradykinin). Conditions: CHO-K1, rat B1R.
T1 construct: expressed in transfected cells; host or cells: CHO K1 cells
T1 sequence (P97583 1-337): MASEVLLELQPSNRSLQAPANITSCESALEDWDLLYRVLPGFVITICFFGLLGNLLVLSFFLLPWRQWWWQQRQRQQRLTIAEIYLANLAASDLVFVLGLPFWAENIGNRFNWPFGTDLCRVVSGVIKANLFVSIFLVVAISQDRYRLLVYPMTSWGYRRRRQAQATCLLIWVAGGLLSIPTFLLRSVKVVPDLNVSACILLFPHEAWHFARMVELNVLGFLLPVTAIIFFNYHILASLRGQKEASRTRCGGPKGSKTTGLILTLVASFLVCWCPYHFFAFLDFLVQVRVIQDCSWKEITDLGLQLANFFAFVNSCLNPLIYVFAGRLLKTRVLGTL
Type: cell-based
Summary of the method: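 Stable CHO K1 lines, Fluo-4 dye, probenecid-containing buffer. Cpd 10 μM or dose range, 10–20 min, then EC80 agonist (h: Lys-Des-Arg9-BK; r: Des-Arg9-BK). Readout peak FC; % inhibition vs max; IC50 from n=2–3, N≥2.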

SMILES | inhibition at 10 µM [%]
O=C(c1ccc2c(c1)C(NS(=O)(=O)c1c(Cl)cc(Cl)cc1Cl)CC2)N1CCC2(CCN(c3ccncc3)CC2)C1 (stereo not shown) [IND_CC-407, 2,4,6-Trichloro-N-[6-(8-pyridin-4-yl-2,8-diazaspiro[4.5]decane-2-carbonyl)-2,3-dihydro-1H-inden-1-yl]-benzenesulfonic acid amide] | 101
CC(C)CC(=O)NC1CCc2ccc(C(=O)N3CCC4(CCN(c5ccncc5)CC4)C3)cc21 (stereo not shown) [IND_CC-409, 3-Methyl-N-[6-(8-pyridin-4-yl-2,8-diazaspiro[4.5]decane-2-carbonyl)-2,3-dihydro-1H-inden-1-yl]-butyramide] | 102
CCCC(=O)N(C)C1CCc2ccc(C(=O)N3CCC4(CC3)CCN(c3ccncc3)CC4)cc21 (stereo not shown) [IND_CC-410, N-Methyl-N-[6-(9-pyridin-4-yl-3,9-diazaspiro[5.5]undecane-3-carbonyl)-2,3-dihydro-1H-inden-1-yl]-butyramide] | 97
CCCC(=O)NC1CCc2ccc(C(=O)N3CCC4(CCN(c5ccncc5)CC4)C3)cc21 (stereo not shown) [IND_CC-411, N-[6-(8-Pyridin-4-yl-2,8-diazaspiro[4.5]decane-2-carbonyl)-2,3-dihydro-1H-inden-1-yl]-butyramide] | 101
CN(C(=O)CCC1CCCC1)C1CCc2ccc(C(=O)N3CCC4(CC3)CCN(c3ccncc3)CC4)cc21 (stereo not shown) [IND_CC-412, 3-Cyclopentyl-N-methyl-N-[6-(9-pyridin-4-yl-3,9-diazaspiro[5.5]undecane-3-carbonyl)-2,3-dihydro-1H-inden-1-yl]-propionamide] | 99
O=C(CCC1CCCC1)NC1CCc2ccc(C(=O)N3CCC4(CCN(c5ccncc5)CC4)C3)cc21 (stereo not shown) [IND_CC-413, 3-Cyclopentyl-N-[6-(8-pyridin-4-yl-2,8-diazaspiro[4.5]decane-2-carbonyl)-2,3-dihydro-1H-inden-1-yl]-propionamide] | 103
CN(C(=O)C1CCC1)C1CCc2ccc(C(=O)N3CCC4(CC3)CCN(c3ccncc3)CC4)cc21 (stereo not shown) [IND_CC-414, N-Methyl-N-[6-(9-pyridin-4-yl-3,9-diazaspiro[5.5]undecane-3-carbonyl)-2,3-dihydro-1H-inden-1-yl]-cyclobutanecarboxylic acid amide] | 102
O=C(NC1CCc2ccc(C(=O)N3CCC4(CCN(c5ccncc5)CC4)C3)cc21)C1CCC1 (stereo not shown) [IND_CC-415, N-[6-(8-Pyridin-4-yl-2,8-diazaspiro[4.5]decane-2-carbonyl)-2,3-dihydro-1H-inden-1-yl]-cyclobutanecarboxylic acid amide] | 100
CCC(C)C(=O)N(C)C1CCc2ccc(C(=O)N3CCC4(CC3)CCN(c3ccncc3)CC4)cc21 (stereo not shown) [IND_CC-416, N,2-Dimethyl-N-[6-(9-pyridin-4-yl-3,9-diazaspiro[5.5]undecane-3-carbonyl)-2,3-dihydro-1H-inden-1-yl]-butyramide] | 101
CCC(C)C(=O)NC1CCc2ccc(C(=O)N3CCC4(CCN(c5ccncc5)CC4)C3)cc21 (stereo not shown) [IND_CC-417, 2-Methyl-N-[6-(8-pyridin-4-yl-2,8-diazaspiro[4.5]decane-2-carbonyl)-2,3-dihydro-1H-inden-1-yl]-butyramide] | 102
CC(C)C(=O)N(C)C1CCc2ccc(C(=O)N3CCC4(CC3)CCN(c3ccncc3)CC4)cc21 (stereo not shown) [IND_CC-418, N,2-Dimethyl-N-[6-(9-pyridin-4-yl-3,9-diazaspiro[5.5]undecane-3-carbonyl)-2,3-dihydro-1H-inden-1-yl]-propionamide] | 99
CC(C)C(=O)NC1CCc2ccc(C(=O)N3CCC4(CCN(c5ccncc5)CC4)C3)cc21 (stereo not shown) [IND_CC-419, 2-Methyl-N-[6-(8-pyridin-4-yl-2,8-diazaspiro[4.5]decane-2-carbonyl)-2,3-dihydro-1H-inden-1-yl]-propionamide] | 101
CCC(CC)C(=O)NC1CCc2ccc(C(=O)N3CCC4(CCN(c5ccncc5)CC4)C3)cc21 (stereo not shown) [IND_CC-420, 2-Ethyl-N-[6-(8-pyridin-4-yl-2,8-diazaspiro[4.5]decane-2-carbonyl)-2,3-dihydro-1H-inden-1-yl]-butyramide] | 100
O=C(NC1CCc2ccc(C(=O)N3CCC4(CCN(S(=O)(=O)c5ccc(F)cc5F)CC4)C3)cc21)c1ccccc1Cl (stereo not shown) [IND_CC-500, 2-Chloro-N-[6-[8-[(2,4-difluoro-phenyl)sulfonyl]-2,8-diazaspiro[4.5]decane-2-carbonyl]-2,3-dihydro-1H-inden-1-yl]-benzamide] | 51
N#Cc1ccccc1S(=O)(=O)N1CCC2(CCN(C(=O)c3ccc4c(c3)C(NC(=O)c3ccccc3Cl)CC4)C2)CC1 (stereo not shown) [IND_CC-501, 2-Chloro-N-[6-[8-[(2-cyano-phenyl)sulfonyl]-2,8-diazaspiro[4.5]decane-2-carbonyl]-2,3-dihydro-1H-inden-1-yl]-benzamide] | 56
O=C(NC1CCc2ccc(C(=O)N3CCC4(CCN(C(=O)Nc5ccc(F)c(Cl)c5)CC4)C3)cc21)c1ccccc1Cl (stereo not shown) [IND_CC-502, 2-[3-[(2-Chloro-benzoyl)amino]-2,3-dihydro-1H-indene-5-carbonyl]-N-(3-chloro-4-fluoro-phenyl)-2,8-diazaspiro[4.5]decane-8-carboxylic acid amide] | 71
N#Cc1cccc(NC(=O)N2CCC3(CC2)CCN(C(=O)c2ccc4c(c2)C(NC(=O)c2ccccc2Cl)CC4)C3)c1 (stereo not shown) [IND_CC-503, 2-[3-[(2-Chloro-benzoyl)amino]-2,3-dihydro-1H-indene-5-carbonyl]-N-(3-cyano-phenyl)-2,8-diazaspiro[4.5]decane-8-carboxylic acid amide] | 66
O=C(NC1CCc2ccc(C(=O)N3CCC4(CCN(Cc5c(F)cccc5F)CC4)C3)cc21)c1ccccc1Cl (stereo not shown) [IND_CC-504, 2-Chloro-N-[6-[8-[(2,6-difluoro-phenyl)-methyl]-2,8-diazaspiro[4.5]decane-2-carbonyl]-2,3-dihydro-1H-inden-1-yl]-benzamide] | 51
CN(C(=O)c1ccccc1Cl)C1CCc2ccc(C(=O)N3CCC4(CCN(Cc5ccccc5C#N)CC4)C3)cc21 (stereo not shown) [IND_CC-505, 2-Chloro-N-[6-[8-[(2-cyano-phenyl)-methyl]-2,8-diazaspiro[4.5]decane-2-carbonyl]-2,3-dihydro-1H-inden-1-yl]-N-methyl-benzamide] | 67
CN(C(=O)c1ccccc1Cl)C1CCc2ccc(C(=O)N3CCC4(CCN(Cc5ccc6nccnc6c5)CC4)C3)cc21 (stereo not shown) [IND_CC-506, 2-Chloro-N-methyl-N-[6-[8-(quinoxalin-6-yl-methyl)-2,8-diazaspiro[4.5]decane-2-carbonyl]-2,3-dihydro-1H-inden-1-yl]-benzamide] | 61
O=C(NC1CCc2ccc(C(=O)N3CCC4(CCN(Cc5c[nH]cn5)CC4)CC3)cc21)c1ccccc1Cl (stereo not shown) [IND_CC-508, 2-Chloro-N-[6-[9-(1H-imidazol-4-yl-methyl)-3,9-diazaspiro[5.5]undecane-3-carbonyl]-2,3-dihydro-1H-inden-1-yl]-benzamide] | 100
O=C(NC1CCc2ccc(C(=O)N3CCC4(CCN(Cc5ccccn5)CC4)CC3)cc21)c1ccccc1Cl (stereo not shown) [IND_CC-509, 2-Chloro-N-[6-[9-(pyridin-2-yl-methyl)-3,9-diazaspiro[5.5]undecane-3-carbonyl]-2,3-dihydro-1H-inden-1-yl]-benzamide] | 101
O=C(NC1CCc2ccc(C(=O)N3CCC4(CCN(Cc5cccnc5)CC4)CC3)cc21)c1ccccc1Cl (stereo not shown) [IND_CC-511, 2-Chloro-N-[6-[9-(pyridin-3-yl-methyl)-3,9-diazaspiro[5.5]undecane-3-carbonyl]-2,3-dihydro-1H-inden-1-yl]-benzamide] | 94
Cn1cccc1CN1CCC2(CC1)CCN(C(=O)c1ccc3c(c1)C(NC(=O)c1ccccc1Cl)CC3)CC2 (stereo not shown) [IND_CC-512, 2-Chloro-N-[6-[9-[(1-methyl-1H-pyrrol-2-yl)-methyl]-3,9-diazaspiro[5.5]undecane-3-carbonyl]-2,3-dihydro-1H-inden-1-yl]-benzamide] | 92
O=C(NC1CCc2ccc(C(=O)N3CCC4(CCN(Cc5c(F)cccc5F)CC4)CC3)cc21)c1ccccc1Cl (stereo not shown) [IND_CC-513, 2-Chloro-N-[6-[9-[(2,6-difluoro-phenyl)-methyl]-3,9-diazaspiro[5.5]undecane-3-carbonyl]-2,3-dihydro-1H-inden-1-yl]-benzamide] | 98
O=C(NC1CCc2ccc(C(=O)N3CCC4(CCN(Cc5ccc(F)c(F)c5)CC4)CC3)cc21)c1ccccc1Cl (stereo not shown) [IND_CC-514, 2-Chloro-N-[6-[9-[(3,4-difluoro-phenyl)-methyl]-3,9-diazaspiro[5.5]undecane-3-carbonyl]-2,3-dihydro-1H-inden-1-yl]-benzamide] | 102
O=C(NC1CCc2ccc(C(=O)N3CCC4(CCN(Cc5cc(F)ccc5F)CC4)CC3)cc21)c1ccccc1Cl (stereo not shown) [IND_CC-515, 2-Chloro-N-[6-[9-[(2,5-difluoro-phenyl)-methyl]-3,9-diazaspiro[5.5]undecane-3-carbonyl]-2,3-dihydro-1H-inden-1-yl]-benzamide] | 104

Same assay, conditions: rat B1R, 10 µM

SMILES | % Inhibition (rat B1R) at 10 μM [%]
O=C(NC1CCc2ccc(C(=O)N3CCC4(CCN(Cc5ccncc5)CC4)CC3)cc21)c1ccccc1Cl (stereo not shown) [IND_CC-510, 2-Chloro-N-[6-[9-(pyridin-4-yl-methyl)-3,9-diazaspiro[5.5]undecane-3-carbonyl]-2,3-dihydro-1H-inden-1-yl]-benzamide] | 95
